We go through 25 compounds from patent US20240368139A1, “NOVEL MODULATORS OF EHMT1 AND EHMT2 AND THERAPEUTIC USE THEREOF” (Tango Therapeutics, Inc., priority 2021, published 2024).

The target in one assay is T1, human EHMT2 913-1193 (Homo sapiens, UniProt Q96KQ7).
T1 sequence (Q96KQ7 913-1193): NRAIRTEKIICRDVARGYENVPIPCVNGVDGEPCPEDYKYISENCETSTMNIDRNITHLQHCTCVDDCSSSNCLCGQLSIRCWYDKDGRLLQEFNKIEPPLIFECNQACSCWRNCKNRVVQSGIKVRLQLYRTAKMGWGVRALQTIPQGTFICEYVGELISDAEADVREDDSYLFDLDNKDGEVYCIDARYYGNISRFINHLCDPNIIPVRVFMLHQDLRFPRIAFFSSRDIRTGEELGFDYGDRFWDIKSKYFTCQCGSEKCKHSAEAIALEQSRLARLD
In words: EHMT2 enzyme assay on histone peptide substrate (3H-SAM SPA). The note with it: EHMT2 IC50, recombinant human EHMT2 913-1193, histone peptide substrate.

The target of a further assay is T2, human EHMT1 982-1266 (Homo sapiens, UniProt Q9H9B1).
T2 sequence (Q9H9B1 982-1266): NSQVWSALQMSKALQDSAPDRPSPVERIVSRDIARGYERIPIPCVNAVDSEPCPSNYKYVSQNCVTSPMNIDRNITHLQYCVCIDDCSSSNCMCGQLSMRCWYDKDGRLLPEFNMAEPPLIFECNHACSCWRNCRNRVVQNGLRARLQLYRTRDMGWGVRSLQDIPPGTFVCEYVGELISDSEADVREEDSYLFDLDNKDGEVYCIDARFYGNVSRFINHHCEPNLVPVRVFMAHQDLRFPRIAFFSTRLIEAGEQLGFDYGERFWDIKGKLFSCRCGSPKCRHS
As to the kind of experiment: EHMT1 enzyme assay on histone peptide substrate (3H-SAM SPA). The note with it: EHMT1 IC50, recombinant human EHMT1 982-1266, histone peptide substrate.

In the next assay the test system is H3K9me2 in HCT116 cells. As to the kind of experiment: HCT116 H3K9me2 in-cell western assay. In kind it is cell-based. Particulars: Homo sapiens, HCT-116, 72 h, HCT116 cells, 72 hours incubation; read-out: H3K9me2 ICW IC50. An excerpt:
HCT116 cell line was purchased from ATCC (Manassas, VA, USA). […] Penicillin-Streptomycin and heat inactivated fetal bovine serum were purchased from Hyclone (Logan, UT, USA). DPBS, Corning^R were purchased from VWR (Radnor, PA, USA). Triton′ X-100 was purchased from Sigma (St. Louis, MO, USA). Intercept blocking buffer, DRAQ5, Licor Odyssey Infrared Scanner were purchased from Licor Biosciences (Lincoln, NB, USA). Plate washer was purchased from BioTek (Winooski, VT, USA). […] 16% Paraformaldehyde was purchased from Electron Microscopy Sciences (Hatfield, PA, USA). HCT116 cells were maintained in complete growth medium (RPMI supplemented with 10% heat inactivated fetal bovine serum, 1% Penicillin-Streptomycin) and cultured at 37° C. under 5% CO2. N^2-(4-methoxy-3-(3-(pyrrolidin-1-yl)propoxy)phenyl)-N^4,6-dimethyl]pyrimidine-2,4-diamine (synthesis disclosed in International Application WO2017181177A1) was used as a control compound.
HCT116 cells (ATCC) were trypsinized, counted and seeded in assay medium (RPMI supplemented with 10% heat inactivated fetal bovine serum, 1% Penicillin-Streptomycin) at a concentration of 2,000 cells per well to a 384-well cell culture plate with compounds in 50 μl per well. Plates were incubated with at 37° C. under 5% CO2 for 72 hours. After the incubation, 50 μl per well of 8% paraformaldehyde in PBS was added to the plates and incubated at room temperature for 20 minutes. Plates were transferred to a BioTek (EL406) plate washer and washed 5 times with 110 μl per well of wash buffer (1×PBS containing 0.1% Triton X-100). The plates were next blocked with 50 μl of Intercept blocking buffer for 1 hour at room temperature. Blocking buffer was removed and 30 μl per well of monoclonal primary antibody of H3K9me2 (CST) diluted 1:200 in Intercept blocking buffer were added and plates were incubated overnight at 4° C. The plates were then washed 5 times with 110 μl per well of wash buffer (1×PBS containing 0.1% Triton X-100). Next 30 μl per well of secondary was added (1:400 800 CW goat anti-rabbit IgG in blocking buffer) with 1:1000 DRAQ5 in blocking buffer and incubated for 2 hours at room temperature. The plates were washed 5 times with 110 μl per well of wash buffer (1×PBS containing 0.1% Triton X-100) then with 100 μl per well of water once. Plates were allowed to dry at room temperature then imaged on a Licor Odyssey Infrared Scanner which measured integrated intensity at 700 nm and 800 nm wavelength. Both 700 and 800 channels were scanned.
The average of the ratio values (800 nm/700 nm) for each well was calculated and used to determine the percentage for each test well in the plate. Compounds were serially diluted two-fold in 0.1% DMSO for a total of 10 test concentrations beginning at 10 μM. IC50 curves were generated using duplicate wells per concentration of compound. […] IC50 values were calculated using a non-linear regression of Prism.

A word on the IC50: it is the midpoint of a concentration-inhibition curve. With `CNc1cc(C)nc(Nc2cc3c(c(C4=C[C@H]5CNC[C@H]5C4)c2)OCC3)n1` (racemic) [Compound 133, N2-[7-(1,2,3,3a,6,6a-hexahydrocyclopenta [c]pyrrol-5-yl)-2,3-dihydrobenzofuran-5-yl]-N4,6-dimethyl-pyrimidine-2,4-diamine], the IC50 on human EHMT2 913-1193 was in the range of 500 to 2000 nM; on human EHMT1 982-1266, 100 to 500 nM; in the assay on H3K9me2 in HCT116 cells, 500 to 2000 nM.

Consider `CNc1cc(C)nc(Nc2cc3c(c(C4=C[C@H]5CNC[C@H]5C4)c2)OC(F)(F)O3)n1` (racemic) [Compound 143, N2-[7-(1,2,3,3a,6,6a-hexahydrocyclopenta[c]pyrrol-5-yl)-2,2-difluoro-1,3-benzodioxol-5-yl]-N4,6-dimethyl-pyrimidine-2,4-diamine], for which the IC50 on human EHMT2 913-1193 is above 2000 nM; at human EHMT1 982-1266 it was 100 to 500 nM; in the assay on H3K9me2 in HCT116 cells, above 2000 nM.

Regarding `CNc1cc(C)nc(Nc2cc3c(c(C4=C[C@@H]5CNC[C@@H]5C4)c2F)OCC3)n1` (racemic) [Compound 359, N2-[7-(1,2,3,3a,6,6a-hexahydrocyclopenta[c]pyrrol-5-yl)-6-fluoro-2,3-dihydrobenzofuran-5-yl]-N4,6-dimethyl-pyrimidine-2,4-diamine], the concentration for half-maximal inhibition (IC50) on human EHMT2 913-1193 is 100 to 500 nM; at human EHMT1 982-1266, below 100 nM; in the assay on H3K9me2 in HCT116 cells, 100 to 500 nM.

Turning to `CNc1cc(C)nc(Nc2cc3c(c(C4=CCN(C)CC(O)C4)c2F)OCC3)n1` (single isomer, unassigned) [Compound 352], the IC50 at human EHMT2 913-1193, on human EHMT1 982-1266 and in the assay on H3K9me2 in HCT116 cells was below 100 nM each time.

For the compound `CNc1cc(C)nc(Nc2cc3c(c(C4=CCNCC(O)C4)c2C)OCCC3)n1` (single isomer, unassigned) [Compound 355], the IC50 on human EHMT2 913-1193, on human EHMT1 982-1266 and in the assay with H3K9me2 in HCT116 cells was below 100 nM each time.

Take `CNc1cc(C)nc(Nc2cc3c(c(C4=CCNCC(O)C4)c2C)OCC3)n1` (single isomer, unassigned) [Compound 358]: the IC50 on human EHMT2 913-1193, at human EHMT1 982-1266 and with H3K9me2 in HCT116 cells was 100 to 500 nM each time.

Consider `CNc1cc(C)nc(Nc2cc3c(c(C4=CCN(C)CC(O)C4)c2C)OCC3)n1` (single isomer, unassigned) [Compound 375], for which the half-inhibitory concentration (IC50) at human EHMT2 913-1193 lay within 500 to 2000 nM; at human EHMT1 982-1266 it was 100 to 500 nM; with H3K9me2 in HCT116 cells, 100 to 500 nM.

For `CNc1cc(C)nc(Nc2cc3c(c(C4=CCNCC(O)C4)c2Cl)OCC3)n1` (single isomer, unassigned) [Compound 376], the IC50 on human EHMT2 913-1193 was 100 to 500 nM; on human EHMT1 982-1266, below 100 nM; with H3K9me2 in HCT116 cells it was below 100 nM.

With `CNc1cc(C)nc(Nc2cc3c(c(C4=CCNC(C)CC4)c2C)OCC3)n1` (single isomer, unassigned) [Compound 383], the half-inhibitory concentration (IC50) at human EHMT2 913-1193, on human EHMT1 982-1266 and in the assay with H3K9me2 in HCT116 cells was below 100 nM throughout.

With `CNc1cc(C)nc(Nc2cc3c(c(C4=CCN(C)CC(O)C4)c2Cl)OCCC3)n1` (single isomer, unassigned) [Compound 402], the half-maximal inhibitory concentration (IC50) with H3K9me2 in HCT116 cells was below 100 nM.

As to `CNc1cc(C)nc(Nc2cc3c(c(C4=CCN(C)CCC4)c2F)OCCC3C)n1` (single isomer, unassigned) [Compound 406], the IC50 in the assay on H3K9me2 in HCT116 cells lay in the range of 100 to 500 nM.

As to `CNc1cc(C)nc(Nc2cc3c(c(C4=CCNCC(O)C4)c2Cl)OCCC3)n1` (single isomer, unassigned) [Compound 407], the half-inhibitory concentration (IC50) in the assay with H3K9me2 in HCT116 cells was below 100 nM.

As for `CNc1cc(C)nc(Nc2cc3c(c(C4=CCNCCC4)c2F)OCCC3C)n1` (single isomer, unassigned) [Compound 414], the concentration for half-maximal inhibition (IC50) with H3K9me2 in HCT116 cells was below 100 nM.

In the case of `CNc1cc(C)nc(Nc2cc3c(c(C4=CCNCCC4)c2F)OCC[C@@H]3C)n1` (single isomer, unassigned) [Compound 415], the half-maximal inhibitory concentration (IC50) in the assay with H3K9me2 in HCT116 cells is below 100 nM.

In the case of `CNc1cc(C)nc(Nc2cc3c(c(C4=CCNCC(O)C4)c2F)OCO3)n1` (single isomer, unassigned) [Compound 428], the half-maximal inhibitory concentration (IC50) at human EHMT2 913-1193, on human EHMT1 982-1266 and in the assay with H3K9me2 in HCT116 cells was below 100 nM each time.

As to `CNc1cc(C)nc(Nc2cc3c(c(C4=CCC(N)CC4)c2F)OCC3)n1` (single isomer, unassigned) [Compound 435], the figures for the IC50 at human EHMT2 913-1193, at human EHMT1 982-1266 and with H3K9me2 in HCT116 cells were 100 to 500 nM, below 100 nM and below 100 nM, respectively.

As to `CNc1cc(C)nc(Nc2cc3c(c(C4=CCNC[C@H](O)C4)c2F)OC[C@H]3C)n1` (stereo in doubt) [Compound 398, rel-(3R)-5-[rel-(3S)-6-fluoro-3-methyl-5-[[4-methyl-6-(methylamino)pyrimidin-2-yl]amino]-2,3-dihydrobenzofuran-7-yl]-2,3,4,7-tetrahydro-1H-azepin-3-ol], the IC50 at human EHMT2 913-1193 is 100 to 500 nM; on human EHMT1 982-1266, below 100 nM; with H3K9me2 in HCT116 cells it was below 100 nM.

Turning to `CNc1cc(C)nc(Nc2cc3c(c(C4=CCNC[C@H](O)C4)c2F)OC[C@@H]3C)n1` (stereo in doubt) [Compound 401, rel-(3R)-5-[rel-(3R)-6-fluoro-3-methyl-5-[[4-methyl-6-(methylamino)pyrimidin-2-yl]amino]-2,3-dihydrobenzofuran-7-yl]-2,3,4,7-tetrahydro-1H-azepin-3-ol], the figures for the half-inhibitory concentration (IC50) at human EHMT2 913-1193, at human EHMT1 982-1266 and with H3K9me2 in HCT116 cells were 100 to 500 nM, below 100 nM and below 100 nM, respectively.

Consider `CNc1cc(C)nc(Nc2cc3c(c(C4=CCNC[C@@H](O)C4)c2F)OC[C@H]3C)n1` (stereo in doubt) [Compound 420, rel-(3S)-5-[rel-(3S)-6-fluoro-3-methyl-5-[[4-methyl-6-(methylamino)pyrimidin-2-yl]amino]-2,3-dihydrobenzofuran-7-yl]-2,3,4,7-tetrahydro-1H-azepin-3-ol], for which the IC50 at human EHMT2 913-1193, on human EHMT1 982-1266 and in the assay with H3K9me2 in HCT116 cells was below 100 nM each time.

In the case of `CNc1cc(C)nc(Nc2cc3c(c(C4=CCNC[C@@H](O)C4)c2F)OC[C@@H]3C)n1` (stereo in doubt) [Compound 422, rel-(3S)-5-[rel-(3R)-6-fluoro-3-methyl-5-[[4-methyl-6-(methylamino)pyrimidin-2-yl]amino]-2,3-dihydrobenzofuran-7-yl]-2,3,4,7-tetrahydro-1H-azepin-3-ol], the half-inhibitory concentration (IC50) on human EHMT2 913-1193, on human EHMT1 982-1266 and in the assay with H3K9me2 in HCT116 cells was below 100 nM throughout.

In the case of `Cc1cc(N(C)C)nc(Nc2cc3c(c(C4=CCNCCC4)c2)OCC3)n1` [Compound 138], in the assay with H3K9me2 in HCT116 cells, the concentration for half-maximal inhibition (IC50) was 100 to 500 nM.

As for `Cc1cc(N(C)C)nc(Nc2cc3c(c(C4=CCN(C)CCC4)c2)OCC3)n1` [Compound 139], the IC50 in the assay with H3K9me2 in HCT116 cells lay in the range of 500 to 2000 nM.

As for `CNc1cc(C)nc(Nc2cc3c(c(C4=CCNC(C)CC4)c2F)OCC3)n1` (stereo not shown) [Compound 202], the concentration for half-maximal inhibition (IC50) with H3K9me2 in HCT116 cells is below 100 nM.

Consider `[2H]Cc1cc(NC([2H])([2H])[2H])nc(Nc2cc3c(c(C4=CCNCCC4)c2F)OCC3)n1` [Compound 249], for which, in the assay with H3K9me2 in HCT116 cells, the concentration for half-maximal inhibition (IC50) was below 100 nM.

With `[2H]C([2H])([2H])Nc1cc(C)nc(Nc2cc3c(c(C4=CCNCCC4)c2F)OCC3)n1` [Compound 253], the IC50 with H3K9me2 in HCT116 cells was below 100 nM.
